Legend:
Format in all cases: cell-based, canine
[1] = tested on: CIPp cells; assay: Cell Counting Kit-8 (CCK-8) cell viability; conditions: for IC50: Canis lupus familiaris, CCK-8
Protocol: (§1) CMT-7364, CIPp, and MDCK cells were plated in a 96-well plate with 2,000 cells per well and maintained in 5% CO2 at 37°C for 24 h until the cells adhered to the bottom. Then the medium was removed, the new media containing different concentrations (0, 0.1, 0.4, 0.6, 0.8, 1.2, and 1.6 μM) of celastrol were added, and incubated for 12, 24, 36, and 48 h. Ten microliters of the cell counting kit-8 (CCK-8) were added to each well for 1 h incubation. At each time point, the OD value was read by a microplate reader at 450 nm wavelength, and the cell viability with each drug concentration at different time points was calculated: cell relative viability=[(OD 450celastrol-OD 450blank) / (OD 450control-OD 450blank)] × 100%.

[2] = tested on: CMT-7364 cells; assay: Cell Counting Kit-8 (CCK-8) cell viability; conditions: for IC50: Canis lupus familiaris, CCK-8
Protocol: as §1

[3] = tested on: MDCK cells; assay: Cell Counting Kit-8 (CCK-8) cell viability, non-tumor cell line; conditions: for IC50: Canis lupus familiaris, MDCK cells (non-tumor canine cell line), CCK-8
Protocol: as §1

[4] = tested on: CIPp cells; assay: Cell migration (wound healing) assay; conditions: 0.9 μM, 24 h, relative to cells without celastrol
Protocol: (§2) CMT-7364 and CIPp cell suspensions were uniformly seeded in a 6-well cell culture plate at a concentration of 1 × 10^5 cells/well. After the cells were fully confluent (more than 90 % of confluence), a 200-μl sterile pipette tip was used to scratch a straight line in the cells of each well. PBS was used to wash away the cell debris and floated cells, and 10% serum-containing medium (control group) and 10% serum-containing medium with celastrol (0.3 μM or 0.9 μM) (test group) were added, respectively, then cells were incubated for 24 h in an incubator. Mitomycin C (1 μM) was used to inhibit cell proliferation. Images of cell migration (wound healing) of the same field were taken with an inverted microscope at 0 and 24 h time points, respectively, followed by analyzing the cell migration rate with ImageJ software (version 1.8.0, United States). In brief, 6–8 horizontal lines were randomly drawn in the wound area to calculate the average value of the distance between cells. The migration rate = [(Distance celastrol0h-Distance celastrol24h) / (Distance control0h-Distance control24h)] × 100%.

[5] = tested on: CMT-7364 cells; assay: Cell migration (wound healing) assay; conditions: 0.9 μM, 24 h, relative to cells without celastrol
Protocol: as §2

[6] = tested on: CIPp cells; assay: Annexin V-FITC/PI apoptosis detection, fluorescence microscope; conditions: 0.3 μM or 0.9 μM, 24 h, vs control group
Protocol: (§3) CMT-7364 and CIPp cells were seeded in a 6-well plate at a concentration of 1 × 10^5 cells/well, treated with different concentrations of celastrol (0, 0.3, 0.9 μM) for 24 h. Then cells were double-stained by Annexin V-FITC/PI, incubating at room temperature for 20 min in the dark, followed by observing with a fluorescence microscope. Green fluorescence represents Annexin V-FITC staining positive, and red fluorescence represents PI staining positive. Apoptotic cells were single-stained by green fluorescence, late apoptotic or necrotic cells were double-stained by green and red fluorescence, and normal cells were not stained by fluorescence. Finally, pictures of the cells were taken by a fluorescence microscope.

[7] = tested on: CMT-7364 cells; assay: as above; conditions: 0.3 μM or 0.9 μM, 24 h, vs control group
Protocol: as §3

[8] = tested on: CIPp cells; assay: Cell cycle distribution, PI staining, flow cytometry; conditions: 24 h (0 μM: 12.0%)
Protocol: (§4) To investigate whether celastrol inhibits the proliferation of canine mammary tumor cells by regulating the cell cycle, we treated canine mammary tumor cells with celastrol for 24 h, then stained cells with PI followed by flow cytometry to detect the percentage of different cell cycle phases. […] Furthermore, we detected the expression of mRNA and protein of cell cycle–related factors by qPCR and Western blotting.

[9] = tested on: CMT-7364 cells; assay: as above; conditions: 24 h (0 μM: 5.6%)
Protocol: as §4

[10] = tested on: CIPp cells; assay: Western blot of apoptosis- and cell cycle-related proteins; conditions: different concentrations, 24 h, Western blot
Protocol: (§5) The CMT-7364 and CIPp cells were treated with different concentrations of Caspase inhibitor Z-V-F and/or celastrol for 24 h, and the cells were lysed with RIPA lysis buffer on ice. The protein was extracted according to the manufacturer's instructions, and protein concentration was determined by the BCA protein concentration assay kit. The loading amount of 20 μg protein in each group was separated by 10% SDS-PAGE, the separated protein was transferred to polyvinylidene fluoride membrane. After blocking with 5% skimmed milk for 1 h, the membrane was washed two times with 0.5% PBS-Tween 20 (PBS-T), then the membrane with the primary antibody was incubated overnight in a shaker at 4°C. Primary antibodies include β-actin (1:2,000), p65 (1:1,000), NF-κB (1:1,000), Caspase-9 (1:1,000), Caspase-3 (1:1,000), Bax (1:2,000), Bcl-2 (1:1,000), Cyclin D1 (1:1,000), p21 (1:1,000), and p27 (1:1,000). After washing 3 times with PBS-T buffer for 10 min each time, the membrane was incubated with HRP-conjugated secondary antibody at 37°C for 30 min. Secondary antibodies include anti-mouse IgG antibody (1:5,000), anti-rabbit IgG antibody (1:2,000~1:4,000). The membrane was washed 3 times with PBS-T for 10 min each time. Finally, it was detected by an enhanced chemiluminescence detection system, and the results were quantified by ImageJ.

[11] = tested on: CMT-7364 cells; assay: as above; conditions: different concentrations, 24 h, Western blot
Protocol: as §5

Compound: CC1=C(O)C(=O)C=C2C1=CC=C1[C@@]2(C)CC[C@@]2(C)[C@@H]3C[C@](C)(C(=O)O)CC[C@]3(C)CC[C@]12C [celastrol, Celastrol]
- cell viability ([1]; 0.1-1.6 μM, 12-48 h): decreased the viability of the cells in a dose- and time-dependent manner
- IC50 ([1]; 24 h): 1160 nM
- IC50 ([1]; 48 h): 968 nM
- proliferation ([1]; concentration <1.2 μM): significantly inhibited
- cell viability ([2]; 0.1-1.6 μM, 12-48 h): decreased the viability of the cells in a dose- and time-dependent manner
- IC50 ([2]; 24 h): 1240 nM
- IC50 ([2]; 48 h): 1010 nM
- proliferation ([2]; concentration <1.2 μM): significantly inhibited
- IC50 ([3]; 24 h): 1810 nM
- IC50 ([3]; 48 h): 1860 nM
- proliferation ([3]; MDCK cells, concentration <1.2 μM): did not significantly inhibit
- migration rate [4]: 52.00 ± 1.73%
- migration rate [5]: 55.33 ± 4.91%
- green fluorescence (Annexin V-FITC, apoptotic cells) [6]: increased
- green fluorescence (Annexin V-FITC, apoptotic cells) [7]: increased
- percentage of cell cycle G2/M phase ([8]; 0.3 μM): 21.9%
- percentage of cell cycle G2/M phase ([8]; 0.9 μM): 34.4%
- percentage of cell cycle G2/M phase ([9]; 0.3 μM): 20.3%
- percentage of cell cycle G2/M phase ([9]; 0.9 μM): 32.7%
- protein expression level of Bax [10]: significantly up-regulated
- protein expression level of Bcl-2 [10]: significantly down-regulated
- protein expression level of Cleaved-Caspase-3 [10]: significantly up-regulated
- protein expression level of Cleaved-Caspase-9 [10]: significantly up-regulated
- protein expression level of Cyclin D1 [10]: down-regulated
- protein expression level of NF-kB [10]: significantly down-regulated
- protein expression level of p21 [10]: up-regulated
- protein expression level of p27 [10]: up-regulated
- protein expression level of phosphorylated p65 [10]: significantly down-regulated
- protein expression level of Bax [11]: significantly up-regulated
- protein expression level of Bcl-2 [11]: significantly down-regulated
- protein expression level of Cleaved-Caspase-3 [11]: significantly up-regulated
- protein expression level of Cleaved-Caspase-9 [11]: significantly up-regulated
- protein expression level of Cyclin D1 [11]: down-regulated
- protein expression level of NF-kB [11]: significantly down-regulated
- protein expression level of p21 [11]: up-regulated
- protein expression level of p27 [11]: up-regulated
- protein expression level of phosphorylated p65 [11]: significantly down-regulated

Reference: PMC8854749, “Celastrol Inhibits Canine Mammary Tumor Cells by Inducing Apoptosis via the Caspase Pathway” (Frontiers in Veterinary Science, 2022)
